According to patent US9452986B2, “6-heteroaryloxy- or 6-aryloxy-quinoline-2-carboxamides and method of use” (AbbVie Inc., priority 2014, dated 2016):
Read-outs that look alike come from different tables or passages of the source.

Legend:
recombinant human Nav1.8 = recombinant human Nav1.8 (Homo sapiens (Human), UniProt Q9Y5Y9); experiment: FRET-based membrane potential assay, recombinant human sodium channel Nav1.8; type: cell-based; conditions: HEK293 cells stably expressing recombinant human Nav1.8; veratridine + scorpion venom depolarization
recombinant human Nav1.8, sequence (Q9Y5Y9 whole entry): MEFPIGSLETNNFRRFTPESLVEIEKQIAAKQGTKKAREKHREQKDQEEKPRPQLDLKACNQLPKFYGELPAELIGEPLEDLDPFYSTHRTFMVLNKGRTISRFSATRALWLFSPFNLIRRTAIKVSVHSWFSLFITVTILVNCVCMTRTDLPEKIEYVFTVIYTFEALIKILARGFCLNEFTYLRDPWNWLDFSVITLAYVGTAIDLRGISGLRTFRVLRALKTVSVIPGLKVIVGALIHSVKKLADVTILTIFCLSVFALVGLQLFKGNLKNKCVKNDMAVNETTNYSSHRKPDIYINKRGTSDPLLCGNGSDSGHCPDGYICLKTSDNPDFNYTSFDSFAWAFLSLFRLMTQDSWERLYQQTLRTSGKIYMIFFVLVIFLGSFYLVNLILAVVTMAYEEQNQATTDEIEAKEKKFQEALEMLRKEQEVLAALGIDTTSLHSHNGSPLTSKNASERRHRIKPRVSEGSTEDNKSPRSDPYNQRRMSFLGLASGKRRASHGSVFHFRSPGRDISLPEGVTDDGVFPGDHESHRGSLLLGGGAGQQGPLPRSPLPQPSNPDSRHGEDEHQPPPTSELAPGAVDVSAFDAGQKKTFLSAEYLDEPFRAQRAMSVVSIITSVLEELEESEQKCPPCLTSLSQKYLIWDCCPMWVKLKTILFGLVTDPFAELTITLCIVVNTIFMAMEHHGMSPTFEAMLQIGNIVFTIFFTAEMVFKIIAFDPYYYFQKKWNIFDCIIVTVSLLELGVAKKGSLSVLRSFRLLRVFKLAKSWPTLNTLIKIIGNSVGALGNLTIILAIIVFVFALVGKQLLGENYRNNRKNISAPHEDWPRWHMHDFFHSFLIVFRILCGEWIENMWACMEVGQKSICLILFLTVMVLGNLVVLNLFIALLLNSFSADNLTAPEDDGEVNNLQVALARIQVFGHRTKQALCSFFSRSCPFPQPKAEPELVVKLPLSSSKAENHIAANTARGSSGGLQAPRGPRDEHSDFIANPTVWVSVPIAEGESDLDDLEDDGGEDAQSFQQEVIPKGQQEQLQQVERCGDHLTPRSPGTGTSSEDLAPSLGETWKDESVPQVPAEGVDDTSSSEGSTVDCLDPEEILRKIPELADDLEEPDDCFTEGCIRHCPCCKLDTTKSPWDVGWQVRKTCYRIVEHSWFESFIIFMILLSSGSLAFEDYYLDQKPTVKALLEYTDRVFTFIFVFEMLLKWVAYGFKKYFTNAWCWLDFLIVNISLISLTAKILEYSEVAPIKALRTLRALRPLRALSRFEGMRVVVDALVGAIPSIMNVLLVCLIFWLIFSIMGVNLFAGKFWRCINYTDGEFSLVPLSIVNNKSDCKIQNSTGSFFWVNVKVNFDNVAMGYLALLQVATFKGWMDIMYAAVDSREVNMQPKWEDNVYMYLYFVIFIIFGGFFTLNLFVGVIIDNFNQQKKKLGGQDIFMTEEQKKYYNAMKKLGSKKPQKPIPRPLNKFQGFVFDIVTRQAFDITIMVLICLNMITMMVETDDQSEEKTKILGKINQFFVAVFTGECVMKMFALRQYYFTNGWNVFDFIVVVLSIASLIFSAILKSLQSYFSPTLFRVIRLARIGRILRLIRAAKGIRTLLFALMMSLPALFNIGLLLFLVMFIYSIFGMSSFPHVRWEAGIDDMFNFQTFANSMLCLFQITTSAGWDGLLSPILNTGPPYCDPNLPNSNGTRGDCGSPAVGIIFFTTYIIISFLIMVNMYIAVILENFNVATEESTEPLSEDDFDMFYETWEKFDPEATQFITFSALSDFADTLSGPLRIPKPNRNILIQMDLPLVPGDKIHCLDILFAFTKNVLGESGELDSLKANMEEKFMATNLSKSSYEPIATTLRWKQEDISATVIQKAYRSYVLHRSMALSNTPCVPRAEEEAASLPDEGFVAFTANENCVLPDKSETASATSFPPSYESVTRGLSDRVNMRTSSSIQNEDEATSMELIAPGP

recombinant human Nav1.7 = recombinant human Nav1.7 (Homo sapiens (Human), UniProt Q15858); experiment: FRET-based membrane potential assay, recombinant human sodium channel Nav1.7; type: cell-based
recombinant human Nav1.7, sequence (Q15858 whole entry): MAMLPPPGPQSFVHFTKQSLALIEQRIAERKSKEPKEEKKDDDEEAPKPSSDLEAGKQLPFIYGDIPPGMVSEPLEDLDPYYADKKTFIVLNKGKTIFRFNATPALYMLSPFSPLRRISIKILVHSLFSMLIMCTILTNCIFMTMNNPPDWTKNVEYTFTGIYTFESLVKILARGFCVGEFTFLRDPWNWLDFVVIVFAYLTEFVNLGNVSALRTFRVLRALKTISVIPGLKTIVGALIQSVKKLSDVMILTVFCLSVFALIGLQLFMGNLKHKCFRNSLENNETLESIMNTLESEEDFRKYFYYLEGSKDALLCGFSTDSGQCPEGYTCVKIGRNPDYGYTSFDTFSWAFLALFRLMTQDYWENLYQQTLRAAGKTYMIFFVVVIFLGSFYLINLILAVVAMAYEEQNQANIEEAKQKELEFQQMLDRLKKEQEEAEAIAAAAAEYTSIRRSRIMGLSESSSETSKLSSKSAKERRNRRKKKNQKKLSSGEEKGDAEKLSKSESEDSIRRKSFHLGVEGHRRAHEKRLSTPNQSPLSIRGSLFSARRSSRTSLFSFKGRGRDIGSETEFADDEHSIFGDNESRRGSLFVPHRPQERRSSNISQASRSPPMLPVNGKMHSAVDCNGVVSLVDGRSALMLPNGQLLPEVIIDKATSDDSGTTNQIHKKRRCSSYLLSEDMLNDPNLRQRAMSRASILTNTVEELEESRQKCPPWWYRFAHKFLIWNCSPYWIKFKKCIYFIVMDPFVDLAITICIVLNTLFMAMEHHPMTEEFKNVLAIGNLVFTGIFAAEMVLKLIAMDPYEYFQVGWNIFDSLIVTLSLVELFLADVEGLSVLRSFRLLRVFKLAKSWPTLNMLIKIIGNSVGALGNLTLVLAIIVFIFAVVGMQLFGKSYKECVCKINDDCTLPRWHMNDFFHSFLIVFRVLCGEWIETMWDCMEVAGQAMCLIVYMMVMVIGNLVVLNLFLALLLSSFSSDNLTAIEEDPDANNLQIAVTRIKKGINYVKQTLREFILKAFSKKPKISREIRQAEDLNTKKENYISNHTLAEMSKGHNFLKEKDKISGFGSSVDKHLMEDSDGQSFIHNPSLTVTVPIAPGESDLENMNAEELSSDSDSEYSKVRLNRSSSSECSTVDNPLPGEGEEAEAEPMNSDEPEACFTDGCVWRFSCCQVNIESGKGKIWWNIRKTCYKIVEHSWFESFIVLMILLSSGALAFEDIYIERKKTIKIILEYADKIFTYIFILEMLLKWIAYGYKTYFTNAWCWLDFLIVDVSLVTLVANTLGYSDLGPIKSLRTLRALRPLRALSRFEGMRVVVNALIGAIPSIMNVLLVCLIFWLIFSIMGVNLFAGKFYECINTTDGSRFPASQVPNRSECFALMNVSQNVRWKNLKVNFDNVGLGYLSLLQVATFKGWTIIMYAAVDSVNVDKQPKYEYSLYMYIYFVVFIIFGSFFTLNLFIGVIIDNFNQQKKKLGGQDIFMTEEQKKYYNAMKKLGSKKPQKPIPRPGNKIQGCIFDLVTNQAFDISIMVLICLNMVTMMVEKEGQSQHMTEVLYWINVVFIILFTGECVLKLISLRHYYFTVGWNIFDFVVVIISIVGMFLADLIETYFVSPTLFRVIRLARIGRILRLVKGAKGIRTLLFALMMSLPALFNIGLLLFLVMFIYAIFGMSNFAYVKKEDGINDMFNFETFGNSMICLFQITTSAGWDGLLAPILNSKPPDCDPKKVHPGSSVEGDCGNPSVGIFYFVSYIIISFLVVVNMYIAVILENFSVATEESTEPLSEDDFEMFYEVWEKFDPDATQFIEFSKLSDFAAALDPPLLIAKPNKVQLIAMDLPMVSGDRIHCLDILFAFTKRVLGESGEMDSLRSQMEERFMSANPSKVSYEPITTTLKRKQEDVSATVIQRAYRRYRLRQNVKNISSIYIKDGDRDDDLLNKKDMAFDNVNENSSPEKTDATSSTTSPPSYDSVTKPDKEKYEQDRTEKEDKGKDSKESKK
Summary of the method: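 Channel activation used veratridine at its EC80, set by a dilution curve each experiment, together with Leiurus scorpion venom, added 3 min after compound. Membrane-potential ratio signals from FLIPR Tetra in HEPES-buffered HBSS were fitted to a four-parameter Hill equation for percent inhibition and IC50.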

osteoarthritic rats = experiment: Osteoarthritic (OA) pain induced by sodium monoiodoacetate (MIA), hind limb grip force; type: in vivo, rat; conditions: Rattus norvegicus, 480 h, rat, 20 days following MIA injection, hind limb grip force, read-out: OA MPE; for inhibition in vivo at 10 mg/kg: OA dose 10 mg/kg; for inhibition in vivo at 30 mg/kg: OA dose 30 mg/kg
Procedure: Osteoarthritic (OA) Pain Induced by Sodium Monoiodoacetate (MIA)
Pain behavior was assessed by measurement of hind limb grip force (GF) in adult osteoarthritic rats. Male Sprague Dawley rats, obtained from Charles River Laboratories, (Wilmington, Mass.), weighing 150-175 g, were injected in the unilateral knee join with a single intra-articular injection of sodium monoiodoacetate (MIA, 3 mg/rat). All rats were tested at 20 days following MIA injection. A behavioral measure of activity-induced pain was carried out. Measurements of the peak hind limb grip force were conducted by recording the maximum compressive force (CFmax), in grams of force, exerted on a hind limb strain gauge setup, in a commercially available grip force measurement system (Columbus Instruments, Columbus, Ohio).
During testing, each rat was gently restrained by grasping it around its rib cage and then allowed to grasp the wire mesh frame attached to the strain gauge. The experimenter then moved the animal in a rostral-to-caudal direction until the grip was broken. Each rat was sequentially tested twice at an approximately 2-3 minute interval to obtain a raw mean grip force (CFmax). This raw mean grip force data was in turn converted to a maximum hindlimb cumulative compressive force (CFmax), as the grams of force/kg of body weight, for each animal.
For evaluating the compound effects, the hind limb grip force was conducted 20 days following the intra-articular injection of MIA. A group of age-matched naïve (not injected with MIA) animals was added as a comparator to the drug-dosed groups. The vehicle control response for each group of MIA-treated animals was defined as the 0% response (0% effect), whereas the naïve control group was defined as the normal response and as 100% effect. The % effect for each dose group was expressed as % return of response to normalcy, compared to the naïve group. A percent maximal possible effect (% MPE) of testing compound was calculated according to the formula: (Treatment CFmax−Vehicle CFmax)/Vehicle CFmax]×100). Higher % effect numbers indicate increased relief from the pain in the model, with 100% indicating a return to the level of response seen in normal (non-osteoarthritic) animals. All experiments evaluating drug effects in this model were conducted in a randomized blinded fashion.
The animals were housed in Association for Assessment and Accreditation of Laboratory Animal Care (AAALAC) approved facilities at AbbVie Inc. in a temperature-regulated environment under a controlled 12-hour light-dark cycle, with lights on at 6:00 a.m. Food and water were available ad libitum at all times except during testing. All testing was done following procedures outlined in protocols approved by AbbVie Inc.'s Institutional Animal Care and Use Committee.

[1] = read-out: FRET-Membrane Potential Nav1.7 IC50
[2] = HEK293 cells stably expressing recombinant human Nav1.7, veratridine + scorpion venom depolarization, read-out: FRET-Membrane Potential Nav1.7 IC50

Row | SMILES | IC50 (recombinant human Nav1.8) [nM] | IC50 (recombinant human Nav1.7; [1]) [nM] | IC50 (recombinant human Nav1.7; [2]) [nM] | inhibition in vivo at 10 mg/kg (osteoarthritic rats) [%] | also measured
1 | O=C(NC1CC(F)(F)C1)c1ccc2cc(Oc3ccc(C(F)F)cn3)ccc2n1 [Example 580, N-(3,3-difluorocyclobutyl)-6-{[5-(difluoromethyl)pyridin-2-yl]oxy}quinoline-2-carboxamide] | 1140 | 1560 | – | – | –
2 | O=C1C[C@@H](NC(=O)c2ccc3cc(Oc4ccc(C(F)(F)F)cn4)ccc3n2)CCN1 [Example 512, N-[(4S)-2-oxopiperidin-4-yl]-6-{[5-(trifluoromethyl)pyridin-2-yl]oxy}quinoline-2-carboxamide] | 213 | 983 | – | – | –
3 | O=C(c1ccc2cc(Oc3ccc(C(F)(F)F)cn3)ccc2n1)N1CC(NCC(F)(F)F)C1 [Example 621, {3-[(2,2,2-trifluoroethyl)amino]azetidin-1-yl}(6-{[5-(trifluoromethyl)pyridin-2-yl]oxy}quinolin-2-yl)methanone] | 1650 | – | 2690 | – | –
4 | O=C(c1ccc2cc(Oc3ccc(C(F)(F)F)cn3)ccc2n1)N1CC2(CCOCC2)C1 [Example 623, 7-oxa-2-azaspiro[3.5]non-2-yl(6-{[5-(trifluoromethyl)pyridin-2-yl]oxy}quinolin-2-yl)methanone] | 3700 | – | 4910 | – | –
5 | O=C1C[C@H](NC(=O)c2ccc3cc(Oc4ccc(C(F)(F)F)cn4)ccc3n2)CCN1 [Example 521, N-[(4R)-2-oxopiperidin-4-yl]-6-{[5-(trifluoromethyl)pyridin-2-yl]oxy}quinoline-2-carboxamide] | 1100 | 2630 | – | – | –
6 | C[C@@H](O)CNC(=O)c1ccc2cc(Oc3ccc(C(F)(F)F)cn3)ccc2n1 [Example 38, N-[(2R)-2-hydroxypropyl]-6-{[5-(trifluoromethyl)pyridin-2-yl]oxy}quinoline-2-carboxamide] | – | 311 | – | 30 | –
7 | O=C(c1ccc2cc(Oc3ccc(C(F)(F)F)cn3)ccc2n1)N1C[C@@H](O)[C@@H](O)C1 [Example 9, [cis-3,4-dihydroxypyrrolidin-1-yl](6-{[5-(trifluoromethyl)pyridin-2-yl]oxy}quinolin-2-yl)methanone] | – | – | 2080 | 68 | –
8 | N#CC1CN(C(=O)c2ccc3cc(Oc4ccc(C(F)(F)F)cn4)ccc3n2)CCN1 (centres unmarked) [Example 483, 4-[(6-{[5-(trifluoromethyl)pyridin-2-yl]oxy}quinolin-2-yl)carbonyl]piperazine-2-carbonitrile] | – | 3610 | – | 55 | –
9 | CO[C@H]1C[C@@H](NC(=O)c2ccc3cc(Oc4ccc(C(F)(F)F)cn4)ccc3n2)C1 [Example 41, N-(cis-3-methoxycyclobutyl)-6-{[5-(trifluoromethyl)pyridin-2-yl]oxy}quinoline-2-carboxamide] | – | – | 1270 | 67 | –
10 | O=C(c1ccc2cc(Oc3ccc(C(F)(F)F)cn3)ccc2n1)N1CCNC2(CC2)C1 [Example 39, 4,7-diazaspiro[2.5]oct-7-yl(6-{[5-(trifluoromethyl)pyridin-2-yl]oxy}quinolin-2-yl)methanone] | – | – | 735 | – | inhibition in vivo at 30 mg/kg (osteoarthritic rats): 43%
11 | COCC1CN(C(=O)c2ccc3cc(Oc4ccc(C(F)(F)F)cn4)ccc3n2)C1 [Example 60, [3-(methoxymethyl)azetidin-1-yl](6-{[5-(trifluoromethyl)pyridin-2-yl]oxy}quinolin-2-yl)methanone] | – | – | 1260 | 23 | –
12 | CN(CC(F)(F)F)C(=O)c1ccc2cc(Oc3ccc(C(F)(F)F)cn3)ccc2n1 [Example 616, N-methyl-N-(2,2,2-trifluoroethyl)-6-{[5-(trifluoromethyl)pyridin-2-yl]oxy}quinoline-2-carboxamide] | – | – | 2630 | – | inhibition in vivo at 30 mg/kg (osteoarthritic rats): 28%
13 | O=C(N[C@H]1C[C@@H](O)C1)c1ccc2cc(Oc3ccc(C(F)(F)F)cn3)ccc2n1 [Example 34, N-(cis-3-hydroxycyclobutyl)-6-{[5-(trifluoromethyl)pyridin-2-yl]oxy}quinoline-2-carboxamide] | – | – | – | 41 | IC50 (recombinant human Nav1.7; FRET-Membrane Potential Nav1.7 IC50): 841 nM
